According to article PMC3389674, “Comparison of Soluble Guanylate Cyclase Stimulators and Activators in Models of Cardiovascular Disease Associated with Oxidative Stress” (Frontiers in Pharmacology, 2012):

Legend:
[1] = tested on: all other proteins tested (human enzymes, ion channels, transporters, and G-protein-coupled receptors); experiment: in vitro selectivity profile: cell-based functional assays, other non-sGC proteins
Procedure: The secondary pharmacological profile (i.e., sGC-independent activity) of GSK2181236A was assessed in cell-based functional assays by characterizing the interaction between GSK2181236A and 38 distinct human enzymes, ion channels, transporters, and G-protein-coupled receptors including 5-HT (5-HT1B/2A/2C/3), 5-HT transporter (SERT), adenosine (A2a), adrenergic (α1B/2C, β2), Aurora B kinase, cycoloxygenase-2 (COX-2), CaV1.2, cytochrome P450 (CYP2C19, 2D6, and 3A4), dopamine (D2), dopamine transporter (DAT), gamma-aminobutyric acid (GABAA), glycogen synthase kinase-3 (GSK3β) histamine (H1), KV1.5, KV7.1, KV11.1, lymphocyte-specific protein tyrosine kinase (LCK), L-monoamine oxidase (MAO-B) muscarinic (M1/2), NaV1.5, nicotinic (α1 nAChR), noradrenaline transporter (NET), opioid (κ, μ), organic anion transporting polypeptide C (OATP1B1), phosphodiesterase 5 (PDE5), phosphatidylinositol 3-kinase (PI3Kγ), pregnane X receptor (PXR), tachykinin (NK1), and vasopressin (V1a).

[2] = target: T1, human sGC (Homo sapiens, UniProt Q02153); experiment: primary cell-free human sGC enzyme assay (cGMP formation); type: biochemical; conditions: data not shown
T1 sequence (Q02153 1-619): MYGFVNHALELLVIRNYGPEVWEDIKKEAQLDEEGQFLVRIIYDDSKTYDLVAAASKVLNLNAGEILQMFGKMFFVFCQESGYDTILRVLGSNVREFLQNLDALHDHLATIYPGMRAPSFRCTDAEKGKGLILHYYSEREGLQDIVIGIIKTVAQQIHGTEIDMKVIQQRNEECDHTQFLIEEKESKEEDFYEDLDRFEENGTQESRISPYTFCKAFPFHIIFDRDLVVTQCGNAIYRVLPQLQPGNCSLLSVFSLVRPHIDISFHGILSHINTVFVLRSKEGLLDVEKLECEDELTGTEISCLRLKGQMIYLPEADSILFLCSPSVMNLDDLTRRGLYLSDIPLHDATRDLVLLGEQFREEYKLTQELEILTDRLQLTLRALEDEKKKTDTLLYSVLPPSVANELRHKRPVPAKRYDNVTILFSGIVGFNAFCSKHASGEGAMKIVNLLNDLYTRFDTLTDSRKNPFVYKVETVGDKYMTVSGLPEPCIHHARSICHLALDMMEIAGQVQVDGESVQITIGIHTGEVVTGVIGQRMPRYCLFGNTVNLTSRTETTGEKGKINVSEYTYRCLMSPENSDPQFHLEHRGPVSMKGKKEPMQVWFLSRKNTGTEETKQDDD
T1 sequence (Q02108 1-690 partner): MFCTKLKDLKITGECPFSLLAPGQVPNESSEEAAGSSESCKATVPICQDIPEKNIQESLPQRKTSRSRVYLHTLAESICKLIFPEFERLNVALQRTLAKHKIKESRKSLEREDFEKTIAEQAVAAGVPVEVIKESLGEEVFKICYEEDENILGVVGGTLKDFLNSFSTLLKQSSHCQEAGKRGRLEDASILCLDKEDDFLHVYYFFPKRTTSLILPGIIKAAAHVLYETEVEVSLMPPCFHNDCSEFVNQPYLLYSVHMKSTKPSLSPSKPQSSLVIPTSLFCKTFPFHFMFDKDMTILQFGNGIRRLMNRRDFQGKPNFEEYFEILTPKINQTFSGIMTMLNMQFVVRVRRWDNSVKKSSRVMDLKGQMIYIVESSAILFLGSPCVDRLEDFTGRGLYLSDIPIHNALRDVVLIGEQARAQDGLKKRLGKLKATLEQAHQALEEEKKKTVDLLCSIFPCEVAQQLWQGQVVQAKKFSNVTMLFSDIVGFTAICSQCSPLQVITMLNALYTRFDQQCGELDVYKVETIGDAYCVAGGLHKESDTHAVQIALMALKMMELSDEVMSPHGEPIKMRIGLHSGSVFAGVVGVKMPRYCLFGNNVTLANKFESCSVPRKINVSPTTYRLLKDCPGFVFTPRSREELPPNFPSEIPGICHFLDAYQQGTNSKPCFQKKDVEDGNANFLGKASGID

Q: Which results are given for `Cc1cc(-c2ccc(OC(F)(F)F)cc2)ccc1COc1ccccc1-c1cccc(-n2ncc(C(=O)O)c2C(F)(F)F)n1` [GSK2181236A, 1-(6-{2-[({3-methyl-4′-[(trifluoromethyl)oxy]-4-biphenylyl}methyl)oxy]phenyl}-2-pyridinyl)-5-(trifluoromethyl)-1H-pyrazole-4-carboxylic acid]?
A: Interactions (EC50s or IC50s) at all other proteins tested [1]: ≥ 2500 nM; interaction with sGC more potent than any other non-sGC protein tested ([1]; cell-based assays): at least 23 fold; selectivity for sGC over all other tested proteins ([1]; vs P-VASP EC50 12.7 nM): ≥ 197 fold; EC50 [2]: 25 nM
